Data on 3 compounds can be found in patent publication US20070225268A1, “METHOD TO TREAT NEOPLASMS VIA GADOLINIUM STEREOTACTIC SYNCHROTRON RADIATION” (priority 2005, published 2007).

Several values for one entry are separate records, joined by “and”; a condition that tells them apart may be missing. Identical values can stand only once.

Data set [1] relates to TB10 cells. As to the kind of experiment: X-PEEM (SPHINX) spectromicroscopy of intranuclear Gd. Format: cell-based, human. On the procedure: (§1) Cell Culture and Exposure to Motexafin Gadolinium: Four well-established human glioblastoma multiforme cell lines were used for the in vitro studies: T98G (22), U87 (23), MO59K (24), and TB10 (9, 25). Cells were grown on precut 10 mm×10 mm silicon wafers (Silson, Northhampton, United Kingdom) for X-PEEM spectromicroscopy; on 1 mm×1 mm Si3N4 windows, 100 nm thick (Silson) for STXM spectromicroscopy; on tissue culture-treated polystyrene slides for confocal microscopy; and in Petri dishes for ICP-MS analysis. Subconfluent cultures were exposed to motexafin gadolinium (Pharmacyclics, Sunnyvale, Calif.), formulated at 2.3 mg/mL in 5% aqueous mannitol, and added to the culture medium to a final concentration of 100 μmol/L. Six different exposure times ranging from 0 to 72 hours were used for the ICP-MS time course measurements. For all microscopy experiments exposure times were kept constant at 72 hours. The cell appearance was not altered by motexafin gadolinium exposure.
(§2) After exposure to motexafin gadolinium, the cell cultures on Si substrates for X-PEEM analysis were washed three times with PBS solution to remove free Gd, fixed in 4% paraformaldehyde in PBS for 20 minutes, double-washed in Milli-Q-water, and air dried. At this point, some cell cultures were sputtered with 3-kV argon ions at 10^−5 Torr for 10 minutes; others were not. Sputtering removes the topmost portion of the cell to reveal the inner nuclear compartment of fixed cells (26). Sputtered and unsputtered cells were then ashed in UV/O3 for 140 hours (27). […]
X-PEEM Spectromicroscopy Analysis: X-PEEM spectromicroscopy analysis was done using the Spectromicroscope for Photoelectron Imaging of Nanostructures with X-rays (SPHINX) instrument (Elmitec GmbH, Clausthal, Germany), installed on the HERMON beamline at the Synchrotron Radiation Center (Madison, Wis.). […] Cell and tissue ashing increases gadolinium concentration by a factor of 10; therefore, the detection limit was on the order of ≦100 ppm in all cells analyzed. […]

A further data set concerns MO59K cells. Description: STXM spectromicroscopy of intranuclear Gd. Format: cell-based, human. The settings on record: 27 MO59K cells, 100 μmol/L, 72 hours. As to the method: as §1
as §2, with “(27). Parallel cultures were run and treated identically for ICP-MS measurements of the bulk Gd concentration. Cell cultures for STXM analysis on Si3N4 windows, after motexafin gadolinium exposure, were washed, fixed, washed, and air-dried.” for “(27).”
(§3) STXM Spectromicroscopy Analysis: The STXM instrument on beamline 11.0.2 at the Advanced Light Source in Berkeley uses an undulator source and is optimized for the Gd3d absorption energy. […] Three cell cultures were analyzed, containing 34 T98G cells, 27 MO59K cells, and 139 TB10 cells, respectively. […]

A further data set relates to T98G cells. Description: STXM spectromicroscopy of intranuclear Gd. It counts as cell-based, human. The settings on record: 34 T98G cells, 100 μmol/L, 72 hours. On the procedure:
as §1
as §2, with “(27). Parallel cultures were run and treated identically for ICP-MS measurements of the bulk Gd concentration. Cell cultures for STXM analysis on Si3N4 windows, after motexafin gadolinium exposure, were washed, fixed, washed, and air-dried.” for “(27).”
as §3

Data set [2] relates to TB10 cells. As to the kind of experiment: STXM spectromicroscopy of intranuclear Gd. It counts as cell-based, human. The following applies: 139 TB10 cells, 100 μmol/L, 72 hours. As to the method:
as §1
as §2, with “(27). Parallel cultures were run and treated identically for ICP-MS measurements of the bulk Gd concentration. Cell cultures for STXM analysis on Si3N4 windows, after motexafin gadolinium exposure, were washed, fixed, washed, and air-dried.” for “(27).”
as §3

Data set [3] deals with T98G, MO59K and TB10 cells. As to the kind of experiment: STXM spectromicroscopy of intranuclear Gd, all cells analyzed. Format: cell-based, human. The following applies: overall, n=200. As to the method: as §1, with “exposure. […]” for “exposure.”
as §3

The test system of data set [4] is TB10, MO59K and T98G cells. Description: Confocal fluorescence microscopy of motexafin gadolinium-related fluorescence. Format: cell-based, human. The settings on record: n=481, 100 μmol/L, 72 hours. As to the method:
Cell Culture and Exposure to Motexafin Gadolinium: Four well-established human glioblastoma multiforme cell lines were used for the in vitro studies: T98G (22), U87 (23), MO59K (24), and TB10 (9, 25). Cells were grown on precut 10 mm×10 mm silicon wafers (Silson, Northhampton, United Kingdom) for X-PEEM spectromicroscopy; on 1 mm×1 mm Si3N4 windows, 100 nm thick (Silson) for STXM spectromicroscopy; on tissue culture-treated polystyrene slides for confocal microscopy; and in Petri dishes for ICP-MS analysis. […]
Confocal Microscopy: Three of the four cell lines (TB10, MO59K, and T98G) were analyzed using a Bio-Rad (Richmond, Calif.) MRC 1024ES confocal microscope. This instrument can simultaneously measure the fluorescence from three channels, with excitation wavelengths from the three lines of a krypton/argon laser and emission through three independent barrier filters. […]
The aperture was set for minimal optical section thickness, and laser power and photodetector gain were set to image cell fluorescence within the 8-bit grayscale range of the photodetector. Five consecutive optical sections were obtained vertically through the cells to verify that motexafin gadolinium fluorescence originated from the nucleus and not only from the cytoplasm above or below the nucleus.

A short description of data set [5]: ICP-MS of Gd in tissue and plasma of glioblastoma multiforme patients. Format: in vivo, human. On the procedure:
Tissue samples from three glioblastoma multiforme patients were also analyzed with ICP-MS (Table 1). These were collected from glioblastoma multiforme tissue and plasma for patients 1 and 2, and from tumor necrotic and uninvolved brain areas for the postmortem patient 3. All gadolinium concentrations were normalized to the measured tissue weight and volume. […]

The subject of data set [6] is human glioblastoma multiforme cell lines. Description: Cell appearance after exposure in culture. The following applies: 100 μmol/L, up to 72 hours. Format: cell-based. On the procedure:
as §1

For data set [7], the system named is glioblastoma multiforme cell nuclei. As to the kind of experiment: In vivo biodistribution of Gd-DTPA in glioblastoma multiforme patients (ICP-MS, spectromicroscopy). Also on record: species or system human. The following applies: six glioblastoma multiforme patients injected with Gd-DTPA before tumor excision. From the text: The present inventors also tested the in vivo biodistribution of Gd-DTPA in six glioblastoma multiforme patients injected with Gd-DTPA before tumor excision. The tumors were frozen and sectioned for ICP-MS and Microscope à Emission de Photoélectrons par Illumination Synchrotronique de Type Onduleur analysis. Evidence for Gd intracellular localization was found within the tumors in all six cases. However, the gadolinium localized in only 6.1% of the cell nuclei analyzed.

For a further data set, the system named is F98 brain glioma. The settings on record: intracranial infusion one day before 78.8 keV photons, 15 Gy single dose; cited from earlier work.

In the case of motexafin gadolinium, the “percentage of Gd-containing nuclei” value with TB10 cells [1] (TB10, after sputtering (72 cells)) came to 88%; in the data set with TB10 cells [1] (TB10, before sputtering (unsputtered, 108 cells)), 92%. Also, the “percentage of cells with at least one gadolinium pixel in the nucleus” value in the data set with TB10 cells [1] (TB10, n=180, 100 μmol/L, 72 hours) stood at 90%. Besides, the results for the “percentage of cells containing gadolinium in their nuclei” value in the data set with MO59K cells, in the data set on T98G cells and with TB10 cells [2] were 96%, 90% and 88%, respectively. Further, in data set [3], the “percentage of cells with at least one gadolinium pixel in their nuclei” value was found to be 90%. For the same compound, the “percentage of cells exhibiting motexafin gadolinium-related fluorescence in cytoplasm and nuclei” value in [4] is recorded as 100%. For the same compound, the “[Gd]” value is 3.415 ppm in [5] (Patient 1, Plasma, 2:30 hrs, single dose 10 mg/kg); 12.973 ppm in data set [5] (Patient 1, Plasma, 5 min, single dose 10 mg/kg); 7.349 ppm in data set [5] (Patient 1, Plasma, 45 min, single dose 10 mg/kg); 4.079 ppm in [5] (Patient 1, Plasma, 3 hrs, single dose 10 mg/kg); 1.700 ppm in [5] (Patient 1, Plasma, 24 hrs, single dose 10 mg/kg); 7.266 ppm in data set [5] (Patient 1, Tumor, 2:30 hrs, single dose 10 mg/kg). The “[Gd]” value in data set [5] (Patient 1, Tumor, 3 hrs, single dose 10 mg/kg) is given as 2.475 ppm; in data set [5] (Patient 2, Plasma, 1:14 hrs, single dose 10 mg/kg), 6.536 ppm; in [5] (Patient 2, Plasma, 1:30 hrs, single dose 10 mg/kg) it was 6.309 ppm; in data set [5] (Patient 2, Plasma, 5 min, single dose 10 mg/kg), 14.043 ppm; in data set [5] (Patient 2, Plasma, 45 min, single dose 10 mg/kg), 8.143 ppm; in [5] (Patient 2, Plasma, 3 hrs, single dose 10 mg/kg), 5.109 ppm. Besides, the “[Gd]” value in data set [5] (Patient 2, Plasma, 24 hrs, single dose 10 mg/kg) is 1.770 ppm; in data set [5] (Patient 2, Tumor, 1:11 hrs, single dose 10 mg/kg), 29.728 ppm; in data set [5] (Patient 2, Tumor, 1:18 hrs, single dose 10 mg/kg), 19.580 ppm; in [5] (Patient 2, Tumor, 45 min, single dose 10 mg/kg), 22.589 ppm; in [5] (Patient 3 (autopsy), Necrosis within tumor, 57 days after the last of multiple doses) it was 2.144 ppm; in data set [5] (Patient 3 (autopsy), Tumor, 57 days after the last of multiple doses, listed as Motexafin-Gd) it was 8.542 ppm and 8.022 ppm. Besides, the cell appearance entry in data set [6] is recorded as “not altered”.
With `O=C([O-])CN(CCN(CC(=O)[O-])CC(=O)O)CCN(CC(=O)[O-])CC(=O)O.[Gd+3]` [Gd-DTPA, gadolinium diethylenetriaminepentaacetic acid], in [7], the “percentage of cell nuclei analyzed in which gadolinium localized” value is on record as 6.1%.
In the case of `N.N.[Cl][Pt][Cl]` [cis-platinum], the “survival rate at one year” value in the data set with F98 brain glioma was 34%.
